Measurements from PubChem BioAssay AID2060617 (Molecular Pharmacology Branch, DTP, NCI, 2025).
pIC50: −log10 of the molar value.

Tested on: 485368-065-R4-J2-PDC spheroids with HUVEC/MSC, viability
Test: Anticancer human tumor 485368-065-R4-J2-PDC patient-derived pancreatic carcinoma cell line growth inhibition [CLK]
Conditions: for pIC50: curve of first compound; for viability, T/C: stronger effect = lower value
Procedure, shortened: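 Patient-derived tumor cells grown as complex spheroids with HUVEC endothelial cells and mesenchymal stem cells, treated with drug combinations. Concentrations descend in half-log steps from near clinical Cmax, or from 10 microM if Cmax unknown.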

[1] = second compound 0.0316 µM, first compound 0.0316 µM
[2] = second compound 0.0316 µM, first compound 0.1 µM
[3] = second compound 0.0316 µM, first compound 0.316 µM
[4] = second compound 0.0316 µM, first compound 1 µM
[5] = second compound 0.0316 µM, first compound 3.16 µM
[6] = second compound 0.0316 µM, first compound 10 µM
[7] = second compound 0.1 µM, first compound 0.0316 µM
[8] = second compound 0.1 µM, first compound 0.1 µM
[9] = second compound 0.1 µM, first compound 0.316 µM
[10] = second compound 0.1 µM, first compound 1 µM
[11] = second compound 0.1 µM, first compound 3.16 µM
[12] = second compound 0.1 µM, first compound 10 µM
[13] = second compound 0.316 µM, first compound 0.0316 µM
[14] = second compound 0.316 µM, first compound 0.1 µM
[15] = second compound 0.316 µM, first compound 0.316 µM
[16] = second compound 0.316 µM, first compound 1 µM
[17] = second compound 0.316 µM, first compound 3.16 µM
[18] = second compound 0.316 µM, first compound 10 µM
[19] = second compound 1 µM, first compound 0.0316 µM
[20] = second compound 1 µM, first compound 0.1 µM
[21] = second compound 1 µM, first compound 0.316 µM
[22] = second compound 1 µM, first compound 1 µM
[23] = second compound 1 µM, first compound 3.16 µM
[24] = second compound 1 µM, first compound 10 µM
[25] = second compound 3.16 µM, first compound 0.0316 µM
[26] = second compound 3.16 µM, first compound 0.1 µM
[27] = second compound 3.16 µM, first compound 0.316 µM
[28] = second compound 3.16 µM, first compound 1 µM
[29] = second compound 3.16 µM, first compound 3.16 µM
[30] = second compound 3.16 µM, first compound 10 µM
[31] = second compound 10 µM, first compound 0.0316 µM
[32] = second compound 10 µM, first compound 0.1 µM
[33] = second compound 10 µM, first compound 0.316 µM
[34] = second compound 10 µM, first compound 1 µM
[35] = second compound 10 µM, first compound 3.16 µM
[36] = second compound 10 µM, first compound 10 µM
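Also: spheroids exposed to compounds for seven days.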
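For viability, T/C in this document: 100% = DMSO vehicle control wells.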

O=C(c1cc(Cc2n[nH]c(=O)c3ccccc23)ccc1F)N1CCN(C(=O)C2CC2)CC1 + CNC(=O)c1ccc(Nc2nc(OC3CCCC3)c3c(-c4ccc5nc(C)oc5c4)c[nH]c3n2)c(OC)c1
pIC50 (second compound 0.0316 µM): < 5.00
pIC50 (second compound 0.1 µM): < 5.00
pIC50 (second compound 0.316 µM): < 5.00
pIC50 (second compound 1 µM): < 5.00
pIC50 (second compound 3.16 µM): < 5.00
pIC50 (second compound 10 µM): < 5.00
viability, T/C [1]: 88%
viability, T/C [2]: 101%
viability, T/C [3]: 94.5%
viability, T/C [4]: 102%
viability, T/C [5]: 106%
viability, T/C [6]: 100%
viability, T/C [7]: 97.5%
viability, T/C [8]: 106%
viability, T/C [9]: 104%
viability, T/C [10]: 106%
viability, T/C [11]: 101%
viability, T/C [12]: 86.1%
viability, T/C [13]: 87.9%
viability, T/C [14]: 91%
viability, T/C [15]: 91.6%
viability, T/C [16]: 83.7%
viability, T/C [17]: 84.3%
viability, T/C [18]: 81.7%
viability, T/C [19]: 83.6%
viability, T/C [20]: 83.3%
viability, T/C [21]: 86.2%
viability, T/C [22]: 78.3%
viability, T/C [23]: 78.8%
viability, T/C [24]: 71.8%
viability, T/C [25]: 75.9%
viability, T/C [26]: 77.6%
viability, T/C [27]: 72.9%
viability, T/C [28]: 73.5%
viability, T/C [29]: 69.6%
viability, T/C [30]: 68.2%
viability, T/C [31]: 76.3%
viability, T/C [32]: 86.9%
viability, T/C [33]: 77.5%
viability, T/C [34]: 76.5%
viability, T/C [35]: 77.3%
viability, T/C [36]: 59.3%

COc1cccc2c1C(=O)c1c(O)c3c(c(O)c1C2=O)CC(O)(C(=O)CO)CC3OC1CC(N)C(O)C(C)O1 (centres undefined) + CNC(=O)c1ccc(Nc2nc(OC3CCCC3)c3c(-c4ccc5nc(C)oc5c4)c[nH]c3n2)c(OC)c1
pIC50 (second compound 0.0316 µM): 6.35
pIC50 (second compound 0.1 µM): 6.39
pIC50 (second compound 0.316 µM): 6.57
pIC50 (second compound 1 µM): 6.81
pIC50 (second compound 3.16 µM): 6.87
pIC50 (second compound 10 µM): 6.95
viability, T/C [1]: 89.3%
viability, T/C [2]: 94.2%
viability, T/C [3]: 56.9%
viability, T/C [4]: 31.6%
viability, T/C [5]: 8.22%
viability, T/C [6]: 23.9%
viability, T/C [7]: 101%
viability, T/C [8]: 100%
viability, T/C [9]: 55.9%
viability, T/C [10]: 26.9%
viability, T/C [11]: 7.71%
viability, T/C [12]: 22.3%
viability, T/C [13]: 101%
viability, T/C [14]: 86.2%
viability, T/C [15]: 45%
viability, T/C [16]: 18.6%
viability, T/C [17]: 6.61%
viability, T/C [18]: 25.7%
viability, T/C [19]: 91%
viability, T/C [20]: 66%
viability, T/C [21]: 25.1%
viability, T/C [22]: 11.3%
viability, T/C [23]: 6.11%
viability, T/C [24]: 23.9%
viability, T/C [25]: 76.6%
viability, T/C [26]: 61.7%
viability, T/C [27]: 17.9%
viability, T/C [28]: 8.87%
viability, T/C [29]: 6.5%
viability, T/C [30]: 15.5%
viability, T/C [31]: 76.6%
viability, T/C [32]: 53.4%
viability, T/C [33]: 17.2%
viability, T/C [34]: 7.28%
viability, T/C [35]: 7.64%
viability, T/C [36]: 17.4%
